From patent US12195427B2, “MASP-2 inhibitors and methods of use” (priority 2018, dated 2025)

Target: MASP-2 CCP2-SP (Homo sapiens (Human), UniProt O00187)
Assay: MASP-2 co-crystallization, X-ray crystallography and structure analysis (H-bonds, van der Waals contacts);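 for Ligand-pharmacophore element distance, pharmacophore element C2: distance from averaged pharmacophore element to bound ligand; missing value means element absent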;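 for Ligand-pharmacophore element distance, pharmacophore element C3: distance from averaged pharmacophore element to bound ligand; missing value means element absent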;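 for Ligand-pharmacophore element distance, pharmacophore element C4: distance from averaged pharmacophore element to bound ligand; missing value means element absent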;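 for Ligand-pharmacophore element distance, pharmacophore element C5: distance from averaged pharmacophore element to bound ligand; missing value means element absent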
Parameters: van der Waals contact distance, MASP-2 HIS 483 atom CD2 / van der Waals contact distance, MASP-2 HIS 483 atom NE2 / van der Waals contact distance, SER 654 C to compound atom / van der Waals contact distance, SER 654 O to compound atom / van der Waals contact distance, TRP 655 C to compound atom / van der Waals contact distance, MASP-2 GLY 528 atom CA / van der Waals contact distance TRP 655 atom CZ3 / van der Waals contact distance TRP 655 atom N / van der Waals contact distance TRP 655 atom CE3 / van der Waals contact distance GLY 656 atom C / van der Waals contact distance GLY 656 atom CA / van der Waals contact distance GLY 656 atom O / van der Waals contact distance, MASP-2 TYR 607 atom CD1 / van der Waals contact distance, MASP-2 PRO 606 atom O / d(C3,CA1) / d(CA1,N1)2 / d(H4,O1) / d(H4,O2) / d(O1,O2) / d(CA1,O2) / d(CA6,O1) / d(CA6,O2) / d(CA1,C5) / d(O2,H3) / d(N2,C2) / d(CA5,N2) / d(N2,C4) / d(N2,C6) / d(N2,CA3) / d(N2,O3) / d(O4,H2): unit not given beside the values
Details: for Ligand-pharmacophore element distance, pharmacophore element C2 / Ligand-pharmacophore element distance, pharmacophore element C3 / Ligand-pharmacophore element distance, pharmacophore element C4 / Ligand-pharmacophore element distance, pharmacophore element C5 / Ligand-pharmacophore element distance, pharmacophore element C6 / Ligand-pharmacophore element distance, pharmacophore element C7 / Ligand-pharmacophore element distance, pharmacophore element CA1 / Ligand-pharmacophore element distance, pharmacophore element CA2 / Ligand-pharmacophore element distance, pharmacophore element CA3 / Ligand-pharmacophore element distance, pharmacophore element CA4 / Ligand-pharmacophore element distance, pharmacophore element CA5 / Ligand-pharmacophore element distance, pharmacophore element CA6: Table A4-1; for a(N1, CA1, O1) b): Methyl-amino-pyridine compounds
Outline: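 Soaked crystals of recombinant CCP2-SP (E. coli) yield the structures, phased by molecular replacement on 1Q3X pieces. Hydrophobic or nonbonded contacts can also cover atom pairs that are potential hydrogen bonds.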

[1] = Table A5-1 pharmacophore: distance between elements, S2/S1 region
[2] = Table A5-2 pharmacophore distance, S3/S4 region
[3] = Table A7-1, between pharmacophore elements of the bound compound
[4] = Table A7-2, between pharmacophore elements of the bound compound
[5] = Table A8-6, nearest protein atom in cell to the left

Chain of MASP-2 CCP2-SP (O00187 445-686): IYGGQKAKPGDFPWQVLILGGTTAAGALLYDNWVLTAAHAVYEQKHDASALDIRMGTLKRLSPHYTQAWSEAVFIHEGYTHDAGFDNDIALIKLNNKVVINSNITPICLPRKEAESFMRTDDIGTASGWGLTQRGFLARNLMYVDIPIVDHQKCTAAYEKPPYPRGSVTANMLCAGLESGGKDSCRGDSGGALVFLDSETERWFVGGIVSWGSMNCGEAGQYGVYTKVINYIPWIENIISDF
Chain of MASP-2 CCP2-SP (O00187 364-432 partner): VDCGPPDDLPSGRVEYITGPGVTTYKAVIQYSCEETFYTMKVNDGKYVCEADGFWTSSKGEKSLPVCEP

Structure (SMILES): C[C@H](NC(=O)[C@@H](CCc1ccccc1)NCc1ccc(C(=O)N2CCOCC2)cc1)C(=O)NCc1ccc(C(=N)N)cc1.Cl.Cl [1153_B]
- Ligand-pharmacophore element distance, pharmacophore element C2: 10.14
- Ligand-pharmacophore element distance, pharmacophore element C3: 0
- Ligand-pharmacophore element distance, pharmacophore element C4: 0
- Ligand-pharmacophore element distance, pharmacophore element C5: 0
- Ligand-pharmacophore element distance, pharmacophore element C6: 0
- Ligand-pharmacophore element distance, pharmacophore element C7: 0
- Ligand-pharmacophore element distance, pharmacophore element CA1: 0.39
- Ligand-pharmacophore element distance, pharmacophore element CA2: 0.58
- Ligand-pharmacophore element distance, pharmacophore element CA3: 0
- Ligand-pharmacophore element distance, pharmacophore element CA4: 0
- Ligand-pharmacophore element distance, pharmacophore element CA5: 6.17
- Ligand-pharmacophore element distance, pharmacophore element CA6: 0
- d(CA1,N1) [1]: 3.54
- d(CA1,O1) [1]: 5.51
- d(CA1,O2) [1]: 8.18
- d(H4,O1) [1]: 5.77
- d(H4,O2) [1]: 7.90
- d(O1,O2) [1]: 9.57
- d(CA5,N2) [2]: 3.75
- d(N2,C2) [2]: 8.53
- d(N2,CA2) [2]: 5.06
- d(N2,O3) [2]: 9.72
- d(O2,H3) [2]: 3.10
- d(O2,N2) [2]: 2.99
- a(CA1, O1, O2) (Table A6-1 pharmacophore angle): 144.91
- a(O1, O2, H4) (Table A6-1 pharmacophore angle): 92.62
- A(N1, CA1, O1) a) (Table A6-1 pharmacophore angle, all compounds with protonatable center N1 except Methyl-amino-pyridine): 171.50
- a(O1, O2, H3) (Table A6-2 pharmacophore angle): 25.95
- a(O1, O2, N2) (Table A6-2 pharmacophore angle): 44.76
- a(O2, N2, C2) (Table A6-2 pharmacophore angle): 163.28
- a(O2, N2, CA2) (Table A6-2 pharmacophore angle): 150.51
- a(O2, N2, O3) (Table A6-2 pharmacophore angle): 165.3
- Pharmacophore torsion angle a(H4, O1, O2, H3) [3]: 70.64
- Pharmacophore torsion angle a(H4, O1, O2, N2) [3]: 133.70
- Pharmacophore torsion angle a(N1, CA1, O2, H4) [3]: 56.56
- Pharmacophore torsion angle a(O1, H4, O2, CA1) [3]: 23.08
- Pharmacophore torsion angle a(O1, O2, N2, C2) [3]: −139.94
- Pharmacophore torsion angle a(O1, O2, N2, CA2) [4]: 76.90
- Pharmacophore torsion angle a(O1, O2, N2, CA5) [4]: −161.98
- Pharmacophore torsion angle a(O1, O2, N2, O3) [4]: −144.09
- Pharmacophore protein distance to MET_658 (first MET_658 column) (Table A8-6, 6th residue column, nearest protein atom in cell to the left): 2.53
- Pharmacophore protein distance to MET_658 (second MET_658 column) (Table A8-6, 9th residue column, nearest protein atom in cell to the left): 3.26
- Pharmacophore protein distance to GLY_528 [5]: 3.41
- Pharmacophore protein distance to PHE_529 [5]: 3.23
- Pharmacophore protein distance to PRO_608 [5]: 4.41
- Pharmacophore protein distance to SER_611 [5]: 2.46
- Pharmacophore protein distance to TRP_655 (Table A8-6, pharmacophore elements C6, CA3, O3, H1, nearest protein atom in cell to the left): 3.42

Structure (SMILES): Cc1nc(N)ccc1CNC(=O)C(C)NC(=O)C1CC(c2cccc3ccccc23)CCN1.Cl.Cl (centres unmarked) [1297_1]
- Ligand-pharmacophore element distance, pharmacophore element C2: 0.34
- Ligand-pharmacophore element distance, pharmacophore element C3: 0.3
- Ligand-pharmacophore element distance, pharmacophore element C4: 0
- Ligand-pharmacophore element distance, pharmacophore element C5: 0
- Ligand-pharmacophore element distance, pharmacophore element C6: 0
- Ligand-pharmacophore element distance, pharmacophore element C7: 0
- Ligand-pharmacophore element distance, pharmacophore element CA1: 0.39
- Ligand-pharmacophore element distance, pharmacophore element CA2: 0.19
- Ligand-pharmacophore element distance, pharmacophore element CA3: 0
- Ligand-pharmacophore element distance, pharmacophore element CA4: 1.24
- Ligand-pharmacophore element distance, pharmacophore element CA5: 0
- Ligand-pharmacophore element distance, pharmacophore element CA6: 0
- d(C3,CA1) [1]: 2.87
- d(CA1,N1)2 [1]: 1.39
- d(CA1,O1) [1]: 4.35
- d(CA1,O2) [1]: 3.86
- d(H4,O1) [1]: 4.31
- d(H4,O2) [1]: 3.81
- d(O1,O2) [1]: 3.46
- d(N2,C2) [2]: 1.44
- d(N2,CA2) [2]: 5.68
- d(O2,H3) [2]: 4.23
- d(O2,N2) [2]: 2.71
- a(C3, CA1, O1) (Table A6-1 pharmacophore angle): 149.59
- a(CA1, O1, O2) (Table A6-1 pharmacophore angle): 107.14
- a(O1, O2, H4) (Table A6-1 pharmacophore angle): 130.08
- a(N1, CA1, O1) b) (Table A6-1 pharmacophore angle): 174.57
- a(O1, O2, H3) (Table A6-2 pharmacophore angle): 144.22
- a(O1, O2, N2) (Table A6-2 pharmacophore angle): 143.88
- a(O2, N2, C2) (Table A6-2 pharmacophore angle): 130.88
- a(O2, N2, CA2) (Table A6-2 pharmacophore angle): 156.06
- Pharmacophore torsion angle a(C3, CA1, O1, H4) [3]: 30.15
- Pharmacophore torsion angle a(H4, O1, O2, H3) [3]: 50.42
- Pharmacophore torsion angle a(H4, O1, O2, N2) [3]: 137.09
- Pharmacophore torsion angle a(N1, CA1, O1, H4) [3]: 26.85
- Pharmacophore torsion angle a(O1, H4, O2, CA1) [3]: −85.98
- Pharmacophore torsion angle a(O1, O2, N2, C2) [3]: 117.40
- Pharmacophore torsion angle a(O1, O2, N2, CA2) [4]: 131.38
- Pharmacophore torsion angle a(O1, O2, N2, CA4) [4]: 110.58

Structure (SMILES): Cc1nc(N)ccc1CNC(=O)[C@H](C)NC(=O)[C@H]1C[C@@H](c2cccc3ccccc23)CCN1.Cl.Cl [1297_2]
- Ligand-pharmacophore element distance, pharmacophore element C2: 0.34
- Ligand-pharmacophore element distance, pharmacophore element C3: 0.17
- Ligand-pharmacophore element distance, pharmacophore element C4: 0
- Ligand-pharmacophore element distance, pharmacophore element C5: 0
- Ligand-pharmacophore element distance, pharmacophore element C6: 0
- Ligand-pharmacophore element distance, pharmacophore element C7: 0
- Ligand-pharmacophore element distance, pharmacophore element CA1: 0.47
- Ligand-pharmacophore element distance, pharmacophore element CA2: 0.22
- Ligand-pharmacophore element distance, pharmacophore element CA3: 0
- Ligand-pharmacophore element distance, pharmacophore element CA4: 1.25
- Ligand-pharmacophore element distance, pharmacophore element CA5: 0
- Ligand-pharmacophore element distance, pharmacophore element CA6: 0
- d(C3,CA1) [1]: 2.88
- d(CA1,N1)2 [1]: 1.37
- d(CA1,O1) [1]: 4.48
- d(CA1,O2) [1]: 3.69
- d(H4,O1) [1]: 4.41
- d(H4,O2) [1]: 3.62
- d(O1,O2) [1]: 3.57
- d(N2,C2) [2]: 1.47
- d(N2,CA2) [2]: 5.78
- d(O2,H3) [2]: 3.98
- d(O2,N2) [2]: 2.84
- a(C3, CA1, O1) (Table A6-1 pharmacophore angle): 150.01
- a(CA1, O1, O2) (Table A6-1 pharmacophore angle): 103.93
- a(O1, O2, H4) (Table A6-1 pharmacophore angle): 128.26
- a(N1, CA1, O1) b) (Table A6-1 pharmacophore angle): 174.54
- a(O1, O2, H3) (Table A6-2 pharmacophore angle): 144.48
- a(O1, O2, N2) (Table A6-2 pharmacophore angle): 141.45
- a(O2, N2, C2) (Table A6-2 pharmacophore angle): 127.48
- a(O2, N2, CA2) (Table A6-2 pharmacophore angle): 154.79
- Pharmacophore torsion angle a(C3, CA1, O1, H4) [3]: 29.10
- Pharmacophore torsion angle a(H4, O1, O2, H3) [3]: 51.75
- Pharmacophore torsion angle a(H4, O1, O2, N2) [3]: 141.21
- Pharmacophore torsion angle a(N1, CA1, O1, H4) [3]: 23.27
- Pharmacophore torsion angle a(O1, H4, O2, CA1) [3]: −87.24
- Pharmacophore torsion angle a(O1, O2, N2, C2) [3]: 116.16
- Pharmacophore torsion angle a(O1, O2, N2, CA2) [4]: 126.84
- Pharmacophore torsion angle a(O1, O2, N2, CA4) [4]: 106.20

Structure (SMILES): Cc1nc(N)ccc1CNC(=O)C(C)NC(=O)C1CC(c2cccc3ccccc23)CCN1.Cl.Cl (centres unmarked) [1297_3]
- Ligand-pharmacophore element distance, pharmacophore element C2: 0.28
- Ligand-pharmacophore element distance, pharmacophore element C3: 0.23
- Ligand-pharmacophore element distance, pharmacophore element C4: 0
- Ligand-pharmacophore element distance, pharmacophore element C5: 0
- Ligand-pharmacophore element distance, pharmacophore element C6: 0
- Ligand-pharmacophore element distance, pharmacophore element C7: 0
- Ligand-pharmacophore element distance, pharmacophore element CA1: 0.33
- Ligand-pharmacophore element distance, pharmacophore element CA2: 0.22
- Ligand-pharmacophore element distance, pharmacophore element CA3: 0
- Ligand-pharmacophore element distance, pharmacophore element CA4: 0.94
- Ligand-pharmacophore element distance, pharmacophore element CA5: 0
- Ligand-pharmacophore element distance, pharmacophore element CA6: 0
- d(C3,CA1) [1]: 2.85
- d(CA1,N1)2 [1]: 1.39
- d(CA1,O1) [1]: 4.43
- d(CA1,O2) [1]: 3.92
- d(H4,O1) [1]: 4.37
- d(H4,O2) [1]: 3.85
- d(O1,O2) [1]: 3.55
- d(N2,C2) [2]: 1.43
- d(N2,CA2) [2]: 5.64
- d(O2,H3) [2]: 4.22
- d(O2,N2) [2]: 2.72
- a(C3, CA1, O1) (Table A6-1 pharmacophore angle): 150.32
- a(CA1, O1, O2) (Table A6-1 pharmacophore angle): 107.42
- a(O1, O2, H4) (Table A6-1 pharmacophore angle): 129.38
- a(N1, CA1, O1) b) (Table A6-1 pharmacophore angle): 174.78
- a(O1, O2, H3) (Table A6-2 pharmacophore angle): 143.41
- a(O1, O2, N2) (Table A6-2 pharmacophore angle): 144.44
- a(O2, N2, C2) (Table A6-2 pharmacophore angle): 132.31
- a(O2, N2, CA2) (Table A6-2 pharmacophore angle): 156.50
- Pharmacophore torsion angle a(C3, CA1, O1, H4) [3]: 28.95
- Pharmacophore torsion angle a(H4, O1, O2, H3) [3]: 50.29
- Pharmacophore torsion angle a(H4, O1, O2, N2) [3]: 141.16
- Pharmacophore torsion angle a(N1, CA1, O1, H4) [3]: 22.83
- Pharmacophore torsion angle a(O1, H4, O2, CA1) [3]: −86.03
- Pharmacophore torsion angle a(O1, O2, N2, C2) [3]: 114.36
- Pharmacophore torsion angle a(O1, O2, N2, CA2) [4]: 129.56
- Pharmacophore torsion angle a(O1, O2, N2, CA4) [4]: 108.64
